Assay [1] has as its target T1, Aβ40 oligomers (Homo sapiens, UniProt P05067).
T1 construct: purchased Invitrogen 03-136
Kind of assay: Aβ40 self-oligomerization dot blot (A11 antibody). The settings on record: oligomer-specific antibody A11. In kind it is biochemical. How it is done: The formation of Aβ40 or Aβ42 oligomers was monitored by dot blot with oligomer-specific antibody. Briefly, the resulting Aβ film was dissolved in ddH2O to form a 100 μM solution, and then the oligomerization reaction ([Kayed et al., 2003]) was initiated in absence or presence of different concentrations of AP5. An aliquot (2 μL) of each solution was dripped on a nitrocellulose membrane. The membrane was blocked with 5% non-fat milk in TBS for 1 h, incubated with the anti-β amyloid (MOAB-2, NBP2-13075SS, Novus Biologicals, Colorado, United States), anti-amyloid oligomers (A11, NBP1-97930, Novus Biologicals), or anti-amyloid fibrils (OC, NBP1-97930, Novus Biologicals) antibodies overnight at 4°C. The membrane was then incubated using HRP-conjugated secondary antibodies at room temperature for 1 h and then developed with ECL.

In assay [2] the test system is Aβ. Kind of assay: MOAB-2 immunofluorescence of Aβ, APP/PS1 mice. The following applies: cortex and hippocampus; AP5 40 mg/kg once daily 5 months. In kind it is in vivo. The protocol: (§1) APP/PS1 mice of ages 6 months were randomly divided into vehicle (APP/PS1, n = 10) and treatment groups (AP5, n = 10), which were intragastrically administered with AP5 (40 mg/kg) once daily for consecutive 5 months. AP5 was dissolved in distilled water containing 1% sodium carboxymethyl cellulose.
(§2) The fixed hemibrains were paraffin-embedded and sectioned in the coronal plane. The slices were deparaffinized with xylene and rehydrated by a series of gradient alcohols. Antigen retrieval through microwave boiling was performed with 10 mM sodium citrate solution at pH 6.0. The slices were cooled down to room temperature and then rinsed in PBS solution. Then the slices were incubated in 10% goat serum blocking solution for 1 h followed by primary antibodies overnight at 4°C. The next day, the slides were labeled with biotinylated or fluorescent secondary antibodies. Slices were washed three times with PBS before being mounted. Images were captured using a SpinSR10 scanner (Olympus, Tokyo, Japan). […]
Cambridge, UK) or anti-GFAP (1:100, bs-0199R, Bioss) at4 °C. After being washed with PBS, slides were treated with a biotinylated secondary antibody for 30 min and with streptavidin-peroxidase complex for another 30 min at 37°C. Immunostaining was visualized with 3,3′-diaminobenzidine (DAB, ZL1-9018, Zhongshan Jinqiao, Beijing, China ).The images were acquired using a Nikon microscope (Nikon, […]

Assay [3] relates to GFAP positive astrocytes. Kind of assay: GFAP immunohistochemistry, Sholl analysis of astrocytes, APP/PS1 mice. The following applies: AP5 40 mg/kg once daily 5 months. The assay is classed as in vivo. The protocol: as §1, §2
After deparaffinization and antigen retrieval, the sections were incubated with 0.3% hydrogen peroxide (H2O2) to inhibit endogenous peroxidase activity for 20 min and blocked by goat serum for 30 min at37°C. Slides were subsequently incubated overnight with specific primary antibodies: anti-Iba1(1:100, ab178847, Abcam, Cambridge, UK) or anti-GFAP (1:100, bs-0199R, Bioss) at4 °C. […]

The test system of assay [4] is spatial learning and memory. Kind of assay: Morris water maze. The assay is classed as in vivo, APP/PS1 mice. The settings on record: after 5 months of treatment. How it is done:
as §1
To investigate whether AP5 treatment plays a key role in cognition improvement of APP/PS1 mice models, the five different behavioral tests were sequentially carried out in the following order: open field, novel object recognition task, spatial object-location task, Y-maze, and Morris water maze (MWM). AP5 was also administered daily during the test periods. A set of video analysis systems (TopScan, CleverSys, United States) was used throughout the behavioral tests. […]
the familiar object) / total exploration time for the novel and familiar object.
For the spatial object location task (an object moved to a new location), mice first explored the two objects placed in two corners of the open field for 5 min in training period. After 1 h or 24 h, the mice received a 5 min retention trial with a new spatial configuration with an object moved from one corner to the opposite corner of the open field.The discrimination index was calculated and defined as: (time spent exploring the displaced object-time spent exploring nondisplaced objects) / total exploration time for the two objects during the 5 min retention trial.
Work on spatial recognition memory was tested by Y-maze. The symmetrical Y-maze consisted of three arms joined in the middle to form a Y shape. […] The ratio between the distance spent in the novel arm and the totaldistance travelled in the maze was quantified as preference index. […]
guided to platform and allowed to stay on it for 30 s. The time (escape latency) for each mouse to find the way and reach the target platform was analyzed. […] The parameters measured during the probe trialincluded number of platform crossing and time spent in the target quadrant. […]

Assay [5] deals with hippocampal gene expression. Kind of assay: Bulk RNA-seq of hippocampal tissues. In kind it is in vivo, APP/PS1 mice. How it is done:
as §1
Hippocampal specimens from WT, APP/PS1, and AP5 mice stored in dry ice were sent to Beijing Genomics Institute (Wuhan, China), and the total RNA was extracted for RNA sequencing on BGISEQ-500 system. Moreover, the differentially expressed genes between APP/PS1 and AP5 were analyzed after RNA sequencing.

The structures appear in SMILES notation.

T1 sequence (P05067 672-711 limits assumed): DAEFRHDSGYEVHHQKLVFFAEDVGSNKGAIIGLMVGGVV

`CCN(C)C(=O)Oc1cccc(/C=C2\Cc3cc(OC)c(OC)cc3C2=O)c1` [AP5, (E)-3-((5,6-dimethoxy-1-oxo-1,3-dihydro-2H-inden-2-ylidene)-methyl)phenylethyl(methyl)carbamate]: the “levels of oligomeric Aβ40” value in assay [1] is given as “decreased the levels”. Also, in assay [2], the “area occupied by unaggregated and aggregated Aβ (MOAB-2)” value is “also decreased”. Moreover, the “reactive phenotypes of astrocytes (ramification index, sum of intersects)” value in assay [3] is recorded as “attenuated”. In assay [4] (MWM probe trial), the platform crossing number result is recorded as “performed much better” and the “time spent in the target quadrant” value is recorded as “performed much better”. The escape latency result in assay [4] (MWM) is “performed much better”. Also, the “expression of genes linked to pan-reactive and A1 astrocytes” value in assay [5] (hippocampus RNA-seq) is given as “reduced the expression of most genes”. Moreover, in assay [5] (hippocampus RNA-seq, among groups), the “expression of signature genes of A2-specific astrocytes” value is given as “No differences”. The DAM gene expression result in assay [5] (hippocampus, AP5-treated vs untreated APP/PS1 mice) was “increase in DAM gene expression”.

The values above are taken from paper PMC9289467, “A Novel Multifunctional 5,6-Dimethoxy-Indanone-Chalcone-Carbamate Hybrids Alleviates Cognitive Decline in Alzheimer’s Disease by Dual Inhibition of Acetylcholinesterase and Inflammation” (Frontiers in Aging Neuroscience, 2022).
